In patent US20090264427A1, “3-Cyanoquinolines, Methods for Preparation and Use as Insulin-like Growth Factor Inhibitors” (Wyeth, priority 2008, published 2009):

Molecular target: T1, IGF1-receptor kinase (IGFR) (Homo sapiens, UniProt P08069)
T1 construct: GST (with thrombin cleavage site) (N); made in house; host or cells: ExpresSF insect cells
Test: 96-well FRET (Lance) tyrosine kinase assay, IGFR
Type: biochemical
Conditions: ATP 100 micromolar final, 1 hour reaction, enzyme form (GST-, Bis- or Tris-IGFR) not given

T1 sequence (P08069 31-1367): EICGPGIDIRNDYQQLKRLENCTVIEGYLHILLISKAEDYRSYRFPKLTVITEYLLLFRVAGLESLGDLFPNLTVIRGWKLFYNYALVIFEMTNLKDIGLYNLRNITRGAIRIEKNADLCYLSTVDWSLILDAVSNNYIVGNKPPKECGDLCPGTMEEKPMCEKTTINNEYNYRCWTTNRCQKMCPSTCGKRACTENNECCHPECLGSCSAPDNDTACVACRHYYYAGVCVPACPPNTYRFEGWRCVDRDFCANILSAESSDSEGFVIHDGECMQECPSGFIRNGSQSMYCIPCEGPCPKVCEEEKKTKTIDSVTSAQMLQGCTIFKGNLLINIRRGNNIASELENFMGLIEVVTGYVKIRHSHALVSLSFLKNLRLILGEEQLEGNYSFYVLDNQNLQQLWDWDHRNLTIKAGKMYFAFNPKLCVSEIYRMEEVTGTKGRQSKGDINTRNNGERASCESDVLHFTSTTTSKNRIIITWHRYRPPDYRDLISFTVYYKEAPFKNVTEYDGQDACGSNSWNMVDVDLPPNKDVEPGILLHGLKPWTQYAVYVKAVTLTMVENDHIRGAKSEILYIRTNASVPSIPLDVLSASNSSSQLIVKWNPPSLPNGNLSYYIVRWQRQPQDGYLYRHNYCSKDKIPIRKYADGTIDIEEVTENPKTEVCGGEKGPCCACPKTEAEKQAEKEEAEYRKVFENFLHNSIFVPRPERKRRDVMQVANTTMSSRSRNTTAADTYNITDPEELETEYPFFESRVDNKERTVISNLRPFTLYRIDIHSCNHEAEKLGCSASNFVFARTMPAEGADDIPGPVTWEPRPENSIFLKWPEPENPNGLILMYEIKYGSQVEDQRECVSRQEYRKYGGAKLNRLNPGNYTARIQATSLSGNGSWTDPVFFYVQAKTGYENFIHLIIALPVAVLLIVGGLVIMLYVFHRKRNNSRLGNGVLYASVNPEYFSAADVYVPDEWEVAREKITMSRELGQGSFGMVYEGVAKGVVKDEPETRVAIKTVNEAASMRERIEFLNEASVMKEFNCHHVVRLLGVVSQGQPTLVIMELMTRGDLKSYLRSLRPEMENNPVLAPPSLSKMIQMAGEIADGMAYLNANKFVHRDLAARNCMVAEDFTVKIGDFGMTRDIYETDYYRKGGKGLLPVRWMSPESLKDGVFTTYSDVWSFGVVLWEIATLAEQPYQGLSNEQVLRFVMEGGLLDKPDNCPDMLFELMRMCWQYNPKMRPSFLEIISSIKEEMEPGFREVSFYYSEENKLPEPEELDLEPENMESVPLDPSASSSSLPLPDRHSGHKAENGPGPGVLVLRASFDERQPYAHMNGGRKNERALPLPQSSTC

Question: For CCn1c(Sc2ccc(Nc3c(C#N)cnc4cc(OCCCNS(C)(=O)=O)c(OC)cc34)cc2Cl)nc(C)c1C [Example 16, N-(3-{[4-({3-chloro-4-[(1-ethyl-4,5-dimethyl-1H-imidazol-2-yl)thio]phenyl]amino)-3-cyano-6-methoxyquinolin-7-yl]oxy}propyl)-methanesulfonamide], which IC50 is on record?
Answer: The IC50 was 35 nM.

Question: For CCn1c(Sc2ccc(Nc3c(C#N)cnc4cc(OCCCNS(=O)(=O)c5ccccc5)c(OC)cc34)cc2Cl)nc(C)c1C [Example 10, N-(3-{4-[3-chloro-4-(1-ethyl-4,5-dimethyl-1H-imidazol-2-ylsulfanyl)-phenylamino]-3-cyano-6-methoxy-quinolin-7-yloxy}-propyl)-benzenesulfonamide], which IC50 is on record?
Answer: The IC50 was 3880 nM.

Question: With CCn1c(Sc2ccc(Nc3c(C#N)cnc4cc(OCCCN(CCO)C(C)(C)C)c(OC)cc34)cc2Cl)nc(C)c1C [Example 11, 7-{3-[tert-butyl(2-hydroxy-ethyl)amino]propoxy}-4-({3-chloro-4-[(1-ethyl-4,5-dimethyl-1H-imidazol-2-yl)thio]phenyl}amino)-6-methoxyquinoline-3-carbonitrile] as the compound, how does the IC50 read?
Answer: Its IC50 is 24 nM.

Question: With CCn1c(Sc2ccc(Nc3c(C#N)cnc4cc(NCCCN5CCOCC5)c(OC)cc34)cc2Cl)nc(C)c1C [Example 8, 4-({3-chloro-4-[(1-ethyl-4,5-dimethyl-1H-imidazol-2-yl)thio]phenyl}-amino)-6-methoxy-7-[(3-morpholin-4-ylpropyl)amino]-quinoline-3-carbonitrile] as the compound, how does the IC50 read?
Answer: The IC50 was 13 nM.

Question: Which IC50 does the source give for CCn1c(Sc2ccc(Nc3c(C#N)cnc4cc(OCCCN5CCC(O)CC5)c(OC)cc34)cc2Cl)nc(C)c1C [Example 26, 4-({3-chloro-4-[(1-ethyl-4,5-dimethyl-1H-imidazol-2-yl)thio]phenyl}amino)-7-[3-(4-hydroxypiperidin-1-yl)propoxy]-6-methoxyquinoline-3-carbonitrile] here?
Answer: The IC50 was 47 nM.

Question: Which IC50 does the source give for CCn1c(Sc2ccc(Nc3c(C#N)cnc4cc(NCCCc5ccccc5)c(OC)cc34)cc2Cl)nc(C)c1C [Example 7, 4-({3-Chloro-4-[(1-ethyl-4,5-dimethyl-1H-imidazol-2-yl)thio]phenyl}amino)-6-methoxy-7-[(3-phenylpropyl)amino]quinoline-3-carbonitrile] here?
Answer: Its IC50 is 17200 nM.

Question: With CCn1c(Sc2ccc(Nc3c(C#N)cnc4cc(OCCCN5CCN(C(C)=O)CC5)c(OC)cc34)cc2Cl)nc(C)c1C [Example 27, 7-[3-(4-acetylpiperazin-1-yl)propoxy]-4-({3-chloro-4-[(1-ethyl-4,5-dimethyl-1H imidazol-2-yl)thio]phenyl}amino)-6-methoxyquinoline-3-carbonitrile] as the compound, how does the IC50 read?
Answer: Its IC50 is 16 nM.

Question: Which IC50 does the source give for CCn1c(Sc2ccc(Nc3c(C#N)cnc4cc(OCCCN5CCC(O)C5)c(OC)cc34)cc2Cl)nc(C)c1C (stereo not drawn) [Example 20, 4-({3-chloro-4-[(1-ethyl-4,5-dimethyl-1H-imidazol-2-yl)thio]phenyl}amino)-7-[3-(3-hydroxypyrrolidin-1-yl)propoxy]-6-methoxyquinoline-3-carbonitrile] here?
Answer: Its IC50 is 20 nM.

Question: For CCC1CCCCN1CCCOc1cc2ncc(C#N)c(Nc3ccc(Sc4nc(C)c(C)n4CC)c(Cl)c3)c2cc1OC (stereo not drawn) [Example 14, 4-({3-chloro-4-[(1-ethyl-4,5-dimethyl-1H-imidazol-2-yl)thio]phenyl}amino)-7-[3-(2-ethylpiperidin-1-yl)propoxy]-6-methoxy-quinoline-3-carbonitrile], which IC50 is on record?
Answer: Its IC50 is 27 nM.

Question: For CCn1c(Sc2ccc(Nc3c(C#N)cnc4cc(NCCCN5CCN(C)CC5)c(OC)cc34)cc2Cl)nc(C)c1C [Example 28, 4-[3-Chloro-4-(1-ethyl-4,5-dimethyl-1H-imidazol-2-ylsulfanyl)-phenylamino]-6-methoxy-7-[3-(4-methyl-piperazin-1-yl)-propylamino]-quinoline-3-carbonitrile], which IC50 is on record?
Answer: Its IC50 is 2 nM.

Question: Which IC50 does the source give for CCn1c(Sc2ccc(Nc3c(C#N)cnc4cc(NCCCN(CCO)CCO)c(OC)cc34)cc2Cl)nc(C)c1C [Example 9, 7-({3-[bis(2-hydroxyethyl)amino]propyl}amino)-4-({3-chloro-4-[(1-ethyl-4,5-dimethyl-1H-imidazol-2-yl)thio]phenyl}amino)-6-methoxyquinoline-3-carbonitrile] here?
Answer: Its IC50 is 21 nM.

Question: For CCOC(=O)N1CCN(CCCOc2cc3ncc(C#N)c(Nc4ccc(Sc5nc(C)c(C)n5CC)c(Cl)c4)c3cc2OC)CC1 [Example 13, ethyl 4-(3-{[4-({3-chloro-4-[(1-ethyl-4,5-dimethyl-1H-imidazol-2-yl)thio]phenyl}amino)-3-cyano-6-methoxyquinolin-7-yl]oxy}propyl)-piperazine-1-carboxylate], which IC50 is on record?
Answer: Its IC50 is 41 nM.

Question: Which IC50 does the source give for CCn1c(Sc2ccc(Nc3c(C#N)cnc4cc(OCCCN5CCOCC5)c(OC)cc34)cc2Cl)nc(C)c1C [Example 24, 4-({3-chloro-4-[(1-ethyl-4,5-dimethyl-1H-imidazol-2-yl)thio]phenyl}amino)-6-methoxy-7-(3-morpholin-4-ylpropoxy)qquinoline-3-carbonitrile] here?
Answer: Its IC50 is 22 nM.

Question: With COc1cc2c(Nc3ccc(Sc4nc(C)c(C)n4C)c(Br)c3)c(C#N)cnc2cc1NCCCN(C)C [Example 5, 4-({3-bromo-4-[(1,4,5-trimethyl-1H-imidazol-2-yl)thio]phenyl}amino)-7-{[3-(dimethylamino)-propyl]amino}-6-methoxy-quinoline-3-carbonitrile] as the compound, how does the IC50 read?
Answer: The IC50 was 30 nM.

Question: Which IC50 does the source give for CCn1c(Sc2ccc(Nc3c(C#N)cnc4cc(OCCCN5CCN(CCO)CC5)c(OC)cc34)cc2Cl)nc(C)c1C [Example 18, 4-({3-chloro-4-[(1-ethyl-4,5-dimethyl-1H-imidazol-2-yl)thio]-phenyl}amino)-7-{3-[4-(2-hydroxyethyl)piperazin-1-yl]propoxy}-6-methoxy-quinoline-3-carbonitrile] here?
Answer: The IC50 was 11 nM.

Question: Which IC50 does the source give for COc1cc2c(Nc3ccc(Sc4nc5cc(C)ccc5n4C)c(Cl)c3)c(C#N)cnc2cc1NCCCN(C)C [Example 3, 4-({3-chloro-4-[(1,5-dimethyl-1H-benzimidazol-2-yl)thio]phenyl}amino)-7-{[3-(dimethylamino)propyl]amino}-6-methoxyquinoline-3-carbonitrile] here?
Answer: The IC50 was 291 nM.

Question: With CCOC(=O)CN1CCN(CCCOc2cc3ncc(C#N)c(Nc4ccc(Sc5nc(C)c(C)n5CC)c(Cl)c4)c3cc2OC)CC1 [Example 22, ethyl [4-(3-{[4-({3-chloro-4-[(1-ethyl-4,5-dimethyl-1H-imidazol-2-yl)thio]phenyl}amino)-3-cyano-6-methoxyquinolin-7-yl]oxy}propyl)piperazin-1-yl]acetate] as the compound, how does the IC50 read?
Answer: The IC50 was 17 nM.

Question: Which IC50 does the source give for CCN1CCN(CCCOc2cc3ncc(C#N)c(Nc4ccc(Sc5nc(C)c(C)n5CC)c(Cl)c4)c3cc2OC)CC1 [Example 17, 4-({3-Chloro-4-[(1-ethyl-4,5-dimethyl-1H-imidazol-2-yl)sulfanyl]phenyl}amino)-7-[3-(4-ethyl-1-piperazinyl)propoxy]-6-methoxy-3-quinolinecarbonitrile] here?
Answer: The IC50 was 5 nM.

Question: Which IC50 does the source give for CCOC(=O)C1CCN(CCCOc2cc3ncc(C#N)c(Nc4ccc(Sc5nc(C)c(C)n5CC)c(Cl)c4)c3cc2OC)CC1 [Example 15, ethyl 1-(3-{[4-({3-chloro-4-[(1-ethyl-4,5-dimethyl-1H-imidazol-2-yl)thio]phenyl}amino)-3-cyano-6-methoxyquinolin-7-yl]oxy}propyl)-piperidine-4-carboxylate] here?
Answer: Its IC50 is 142 nM.

Question: With COc1cc2c(Nc3ccc(Sc4nc(C)c(C)n4C)cc3)c(C#N)cnc2cc1NCCCN(C)C [Example 6, 7-{[3-(dimethyl-amino)propyl]-amino}-6-methoxy-4-({4-[(1,4,5-trimethyl-1H imidazol-2-yl)thio]phenyl}amino)-quinoline-3-carbonitrile] as the compound, how does the IC50 read?
Answer: Its IC50 is 394 nM.

Tested on: not given
Test: not given
Conditions: not given

Question: With CCN1CCN(CCCOc2cc3ncc(C#N)c(Nc4ccc(Sc5nc(C)c(C)n5CC)c(Cl)c4)c3cc2OC)CC1 [Example 17, 4-({3-Chloro-4-[(1-ethyl-4,5-dimethyl-1H-imidazol-2-yl)sulfanyl]phenyl}amino)-7-[3-(4-ethyl-1-piperazinyl)propoxy]-6-methoxy-3-quinolinecarbonitrile] as the compound, how does the melting point read?
Answer: Its melting point is 229 to 230 °C.
